Reference: patent US20090005374A1, “IMIDAZOPYRIDINYL THIAZOLYL HISTONE DEACETYLASE INHIBITORS” (priority 2007, published 2009)

Columns and labels:
HDAC 6 [1] = biological target: T1, HDAC 6 (Homo sapiens, UniProt Q9UBN7); assay: HDAC 6 fluorogenic peptide substrate assay with 3-hour enzyme/compound preincubation; format: biochemical; conditions: 3-hour preincubation of enzyme and compound; read-out: HDAC 6 inhibitory activity (IC50) 3-hour preincubation
T1 sequence (Q9UBN7 1-1215): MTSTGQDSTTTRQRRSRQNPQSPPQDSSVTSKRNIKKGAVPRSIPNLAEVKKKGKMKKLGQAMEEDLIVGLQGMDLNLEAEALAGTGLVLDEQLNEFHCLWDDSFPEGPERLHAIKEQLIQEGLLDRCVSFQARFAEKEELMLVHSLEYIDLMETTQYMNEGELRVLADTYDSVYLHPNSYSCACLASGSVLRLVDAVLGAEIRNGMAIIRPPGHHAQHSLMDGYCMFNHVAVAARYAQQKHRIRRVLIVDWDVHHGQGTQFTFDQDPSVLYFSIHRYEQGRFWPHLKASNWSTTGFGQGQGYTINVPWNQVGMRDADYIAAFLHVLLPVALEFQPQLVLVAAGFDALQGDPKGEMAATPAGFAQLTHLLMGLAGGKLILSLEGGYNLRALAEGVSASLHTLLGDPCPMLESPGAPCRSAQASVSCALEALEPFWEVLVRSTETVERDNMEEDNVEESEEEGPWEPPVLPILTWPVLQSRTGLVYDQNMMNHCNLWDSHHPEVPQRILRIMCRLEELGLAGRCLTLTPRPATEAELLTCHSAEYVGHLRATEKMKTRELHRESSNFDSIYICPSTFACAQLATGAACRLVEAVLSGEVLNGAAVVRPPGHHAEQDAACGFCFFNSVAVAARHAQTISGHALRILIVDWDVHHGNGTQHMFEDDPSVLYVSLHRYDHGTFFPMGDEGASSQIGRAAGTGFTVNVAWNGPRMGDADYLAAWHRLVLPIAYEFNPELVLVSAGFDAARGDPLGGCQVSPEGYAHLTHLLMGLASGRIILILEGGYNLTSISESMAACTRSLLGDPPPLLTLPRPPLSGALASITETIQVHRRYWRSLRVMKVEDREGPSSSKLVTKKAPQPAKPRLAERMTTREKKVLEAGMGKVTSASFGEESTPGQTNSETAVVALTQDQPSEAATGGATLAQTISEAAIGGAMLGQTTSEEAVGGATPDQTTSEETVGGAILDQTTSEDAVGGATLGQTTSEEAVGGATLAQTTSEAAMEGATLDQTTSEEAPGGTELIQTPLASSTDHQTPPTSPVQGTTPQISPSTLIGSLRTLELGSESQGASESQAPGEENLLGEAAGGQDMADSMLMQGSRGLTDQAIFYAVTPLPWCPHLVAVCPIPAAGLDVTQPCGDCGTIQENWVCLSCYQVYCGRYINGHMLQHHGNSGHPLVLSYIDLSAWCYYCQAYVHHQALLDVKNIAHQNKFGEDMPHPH
Protocol: (§1) The second assay is similar to the first assay described above, except that preincubation is carried out for about 3 hours after the enzyme is introduced. The test compound was suspended in, and titrated in DMSO. It was then spotted into a 384-well test plate. The enzyme, HDAC 1 or 6, was diluted in the same assay buffer as used in the previous assay and added to the pre-spotted compound. The enzyme/compound mix was incubated at room temperature for about 3 hours. The peptide substrate containing a fluorophore/quencher pair was diluted in the assay buffer and added to the compound/enzyme mix initiating the reaction. The reaction incubated at room temperature for 45 minutes. A concentrated developer solution was diluted in the assay buffer, and added to the reaction. The reaction was incubated at room temperature for about 15 minutes and relative fluorescence was read on an instrument reader.

HDAC 6 [2] = biological target: T1, HDAC 6; assay: HDAC 6 fluorogenic peptide substrate assay without preincubation; format: biochemical; conditions: no preincubation; read-out: HDAC 6 inhibitory activity (IC50) No preincubation
Protocol: (§2) HDAC inhibitory activity of the compound of Example 1 was measured by two types of assays in which HDAC 1 and 6 were used as a target molecule. The first assay was carried out without preincubation after addition of the enzyme. The test compound was suspended in and titrated in DMSO. It was then spotted into a 384-well test plate. The enzyme, HDAC 1 or 6, was diluted in assay buffer containing 25 mM Tris-HCl (pH 8.0), 137 mM NaCl, 2.7 mM KCl, and 0.01% Tween-20 and added to the pre-spotted compound. The peptide substrate containing a fluorophore/quencher pair was diluted in the same assay buffer and added to the compound/enzyme mix initiating the reaction. The reaction incubated at room temperature for about 45 minutes. A concentrated developer solution was diluted in the assay buffer, and added to the reaction. The reaction was incubated at room temperature for about 15 minutes and relative fluorescence was read on an instrument reader.

HDAC 1 [3] = biological target: T2, HDAC 1 (Homo sapiens, UniProt Q13547); assay: HDAC 1 fluorogenic peptide substrate assay without preincubation; format: biochemical; conditions: no preincubation; read-out: HDAC 1 inhibitory activity (IC50) No preincubation
Protocol: as §2

HDAC 1 [4] = biological target: T2, HDAC 1; assay: HDAC 1 fluorogenic peptide substrate assay with 3-hour enzyme/compound preincubation; format: biochemical; conditions: 3-hour preincubation of enzyme and compound; read-out: HDAC 1 inhibitory activity (IC50) 3-hour preincubation
Protocol: as §1

T2 sequence (Q13547 whole entry, species assumed): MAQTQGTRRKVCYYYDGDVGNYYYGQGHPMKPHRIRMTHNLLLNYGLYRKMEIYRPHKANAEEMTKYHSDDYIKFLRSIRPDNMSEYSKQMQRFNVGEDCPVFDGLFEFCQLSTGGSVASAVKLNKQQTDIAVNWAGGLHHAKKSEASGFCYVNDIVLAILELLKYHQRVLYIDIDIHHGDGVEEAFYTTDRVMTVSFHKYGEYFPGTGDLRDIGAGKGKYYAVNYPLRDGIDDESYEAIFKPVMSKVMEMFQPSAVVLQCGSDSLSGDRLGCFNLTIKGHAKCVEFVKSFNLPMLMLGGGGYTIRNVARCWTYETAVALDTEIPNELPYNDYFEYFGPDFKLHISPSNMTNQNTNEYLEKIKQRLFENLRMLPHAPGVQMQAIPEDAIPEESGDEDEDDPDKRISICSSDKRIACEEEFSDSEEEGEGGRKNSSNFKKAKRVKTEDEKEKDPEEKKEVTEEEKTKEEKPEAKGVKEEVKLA

Row | IC50 (HDAC 6 [1]) | IC50 (HDAC 6 [2]) | IC50 (HDAC 1 [3]) | IC50 (HDAC 1 [4]) | melting point | Structure (SMILES)
1 | 490 nM | 318 nM | 1080 nM | 92.7 nM | 170.4 °C | Cc1nc2ccccn2c1-c1csc(Nc2cccc(C(=O)NO)c2)n1 [Example 1, N-Hydroxy-3-[4-(2-methyl-imidazo[1,2-a]pyridin-3-yl)-thiazol-2-ylamino] -benzamide]
2 | > 50000 nM | > 50000 nM | 3260 nM | 42000 nM | 194.9 to 197 °C | Cc1nc2ccccn2c1-c1csc(Nc2cccc(C(=O)Nc3ccccc3N)c2)n1 [Example 2, N-(2-Amino-phenyl)-3-[4-(2-methyl-imidazo[1,2-a]pyridin-3-yl)-thiazol-2-ylamino]-benzamide]
3 | 55.8 nM | 46.7 nM | 80 nM | 53.5 nM | 188.3 °C | Cc1nc2ccccn2c1-c1csc(Nc2ccc(C(=O)NO)cc2)n1 [Example 3, N-Hydroxy-4-[4-(2-methyl-imidazo[1,2-a]pyridin-3-yl)-thiazol-2-ylamino]-benzamide]
4 | > 50000 nM | > 50000 nM | 313 nM | 80 nM | 161.1 to 165.4 °C | Cc1nc2ccccn2c1-c1csc(Nc2ccc(C(=O)Nc3ccccc3N)cc2)n1 [Example 4, N-(2-Amino-phenyl)-4-[4-(2-methyl-imidazo[1,2-a]pyridin-3-yl)-thiazol-2-ylamino]-benzamide]
5 | – | – | – | 53.9 nM | 200.5 °C | Cc1nc2ccccn2c1-c1nc(Nc2ccc(C(=O)NO)cc2)sc1C [Example 5, N-Hydroxy-4-[5-methyl-4-(2-methyl-imidazo[1,2-a]pyridin-3-yl)-thiazol-2-ylamino]-benzamide]
6 | – | – | – | 21.5 nM | 250.1 °C | Cc1nc2ccccn2c1-c1nc(Nc2ccc(C(=O)Nc3ccccc3N)cc2)sc1C [Example 6, N-(2-Amino-phenyl)-4-[5-methyl-4-(2-methyl-imidazo[1,2-a]pyridin-3-yl)-thiazol-2-ylamino]-benzamide]
7 | – | – | – | 22 nM | – | Cc1nc2ccc(Cl)cn2c1-c1csc(Nc2ccc(C(=O)NO)cc2)n1 [Example 7, 4-[4-(6-Chloro-2-methyl-imidazo[1,2-a]pyridin-3-yl)-thiazol-2-ylamino]-N-hydroxy-benzamide]
8 | – | – | – | 51 nM | – | Cc1nc2ccc(Cl)cn2c1-c1csc(Nc2ccc(C(=O)Nc3ccccc3N)cc2)n1 [Example 8, N-(2-Amino-phenyl)-4-[4-(6-chloro-2-methyl-imidazo[1,2-a]pyridin-3-yl)-thiazol-2-ylamino]-benzamide]
9 | – | – | – | 154 nM | 183.2 °C | Cc1nc2ccc(C(F)(F)F)cn2c1-c1csc(Nc2ccc(C(=O)NO)cc2)n1 [Example 9, N-Hydroxy-4-[4-(2-methyl-6-trifluoromethyl-imidazo[1,2-a]pyridin-3-yl)-thiazol-2-ylamino]-benzamide]
10 | – | – | – | 59 nM | – | Cc1nc2ccc(C(F)(F)F)cn2c1-c1csc(Nc2ccc(C(=O)Nc3ccccc3N)cc2)n1 [Example 10, N-(2-Amino-phenyl)-4-[4-(2-methyl-6-trifluoromethyl-imidazo[1,2-a]pyridin-3-yl)-thiazol-2-ylamino]-benzamide]
11 | – | – | – | 56.9 nM | 159.7 °C | COc1ccn2c(-c3csc(Nc4ccc(C(=O)Nc5ccccc5N)cc4)n3)c(C)nc2c1 [Example 11, N-(2-Amino-phenyl)-4-[4-(7-methoxy-2-methyl-imidazo[1,2-a]pyridin-3-yl)-thiazol-2-ylamino]-benzamide]
12 | – | – | – | 62.6 nM | – | COc1ccn2c(-c3csc(Nc4ccc(C(=O)NO)cc4)n3)c(C)nc2c1 [Example 12, N-Hydroxy-4-[4-(7-methoxy-2-methyl-imidazo[1,2-a]pyridin-3-yl)-thiazol-2-ylamino]-benzamide]
13 | 17 nM | 18.5 nM | 85.5 nM | 29 nM | 209.9 °C | O=C(NO)c1ccc(Nc2nc(-c3cnc4ccccn34)cs2)cc1 [Example 13, N-Hydroxy-4-(4-imidazo[1,2-a]pyridin-3-yl-thiazol-2-ylamino)-benzamide]
14 | – | 183 nM | 5400 nM | 114 nM | 184.1 °C | O=C(NO)c1cccc(Nc2nc(-c3cnc4ccccn34)cs2)c1 [Example 14, N-Hydroxy-3-(4-imidazo[1,2-a]pyridin-3-yl-thiazol-2-ylamino)-benzamide]
15 | > 10000 nM | – | – | 37 nM | 229.4 °C | Nc1ccccc1NC(=O)c1ccc(Nc2nc(-c3cnc4ccccn34)cs2)cc1 [Example 15, N-(2-Amino-phenyl)-4-(4-imidazo[1,2-a]pyridin-3-yl-thiazol-2-ylamino)-benzamide]
16 | – | – | – | 9130 nM | – | Nc1ncccc1NC(=O)c1ccc(Nc2nc(-c3cnc4ccccn34)cs2)cc1 [Example 16, N-(2-Amino-pyridin-3-yl)-4-(4-imidazo[1,2-a]pyridin-3-yl-thiazol-2-ylamino)-benzamide]
17 | – | – | – | 24.6 nM | 186.5 °C | Cc1sc(Nc2ccc(C(=O)Nc3ccccc3N)cc2)nc1-c1cnc2ccccn12 [Example 17, N-(2-Amino-phenyl)-4-(4-imidazo[1,2-a]pyridin-3-yl-5-methyl-thiazol-2-ylamino)-benzamide]
18 | – | – | – | 46.7 nM | 262.6 °C | Cc1sc(Nc2ccc(C(=O)NO)cc2)nc1-c1cnc2ccccn12 [Example 18, N-Hydroxy-4-(4-imidazo[1,2-a]pyridin-3-yl-5-methyl-thiazol-2-ylamino)-benzamide]
19 | – | – | – | 6030 nM | – | Cc1sc(Nc2ccc(C(=O)Nc3nn(-c4ccccc4)cc3N)cc2)nc1-c1cnc2ccccn12 [Example 19, N-(4-Amino-1-phenyl-1H-pyrazol-3-yl)-4-(4-imidazo [1,2-a]pyridin-3-yl-5-methyl-thiazol-2-ylamino)-benzamide]
20 | – | – | – | 48 nM | – | Nc1ccccc1NC(=O)c1ccc(Nc2ncc(-c3cnc4ccccn34)s2)cc1 [Example 20, N-(2-Amino-phenyl)-4-(5-imidazo[1,2-a]pyridin-3-yl-thiazol-2-ylamino)-benzamide]
21 | – | – | – | 147 nM | – | Cc1nc2ccccn2c1-c1csc(N(CC(F)(F)F)c2ccc(C(=O)Nc3ccccc3N)cc2)n1 [Example 21a, N-(2-Amino-phenyl)-4-[[4-(2-methyl-imidazo[1,2-a]pyridin-3-yl)-thiazol-2-yl]-(2,2,2-trifluoro-ethyl)-amino]-benzamide]
22 | – | – | – | 5580 nM | – | Cc1nc2ccccn2c1-c1csc(N(CC(F)(F)F)c2ccc(C(=O)NO)cc2)n1 [Example 21b, N-Hydroxy-4-[[4-(2-methyl-imidazo[1,2-a]pyridin-3-yl)-thiazol-2-yl]-(2,2,2-trifluoro-ethyl)-amino]-benzamide]
